What was measured:
Assay type in all cases: cell-based
[1] = test system: oxygen radical-forming activity of activated peritoneal exudate cells (PEC) of mice; experiment: Peak chemiluminescence (CL) test: inhibition of oxygen radical liberation from activated peritoneal exudate cells; conditions: Mus musculus, 10^-4 Mol substance/l, added at peak of cell activity, read-out: Inhibition in vitro of the oxygen radical liberation, Chemiluminescence Test % inhibition, Pk. CL
Method: 1. To determine the inhibiting effect on the oxygen radical-forming activity of inflamed cells, the in vitro inhibition of the release of oxygen radicals from activated peritoneal exudate cells (=PEC) of mice was determined in the chemiluminescence (CL) test according to the method of Mueller-Peddinghaus (Int. J. Immunopharmac. 6, 455-466 (1984)). […] The intensity of the chemiluminescence is a measurement of the oxygen radical content in the suspension and thus the degree of activity of the inflamed cells. In this, three functionally different parameters are detected, the spontaneous CL, the induced CL and the peak CL. The spontaneous CL and the induced CL on the one hand and the peak CL on the other hand differ from each other because in the first two parameters the test substances are in contact with the cells for a 30 minute preincubation period before the inflammation irritant is added, whereas with the peak CL the cells are first stimulated, and the test substance is added at the peak of their activity. The measurement of the spontaneous CL thus detects the influence of the test substance on the relative rest activity of inflamed cells, the induced CL represents the effect of the test substances on the activatability of the cells and the inhibition of the peak CL indicates the effect of the test substances on the maximum activity of the inflamed cells. 1.1 Production of PEC suspension used in the test. In order to induce the PEC formation, female mice of 20-25 g body weight were each injected i.p. with 2 ml of a 3% solution of thioglycollate in sterile isotonic sodium chloride solution. Twenty four hours after the thioglycollate injection the cells, which predominantly consisted of polymorphonuclear leucocytes, were recovered by washing out of the abdominal cavity and washed twice. As cell culture medium there was added a commercially available solution under the designation RPMI 1640 (pH 7.2) (produced by Flow Laboratories, […], Germany), which contains 10% fetal calf serum (FCS, produced by Seromed GmbH, Munich, Germany) 18 μmol/l sodium bicarbonate and 2 μmol/l L-glutamine. The cell pellets of four animals each time were resuspended in cell culture medium, collected together and the suspension was made up to 2×10^6 cells per ml with cell culture medium. The cell suspensions were kept under ice cooling until their use the same day. 1.2 Production of the complement opsonized zymosan (=ZyC3 b) suspension used for activation. 200 mg zymosan (glycoprotein mixture isolated from the cell walls of brewer's yeast, Sacchomyces […], produced by Sigma Chemical Co., Munich, Germany) were suspended in 10 ml phosphate buffer solution according to Dulbecco (produced by Flow Laboratories, […], Germany), well stirred and heated for thirty minutes in a water bath to 100° C. After cooling, it was centrifuged for five minutes at 4° C. and at 600 ×g and the supernatant was discarded. The sediment was resuspended in 50 ml human serum and incubated for thirty minutes at 37° C. in a shaking water bath. Then it was centrifuged for five minutes at 600 ×g and 420 C., the supernatant decanted and the sediment washed with phosphate buffer solution. The working suspension of 8×10^-3 g ZyC3 b/ml was produced from the sediment by dilution with phosphate buffer solution (Mueller-Peddinghaus et al., Zbl. Vet. Med. B. 30, 559-575). 1.3 Chemiluminescence (CL) measurement (Peak-CL). The PEC suspension was divided into samples of 100 μl each, placed in test tubes, and these were incubated for ten minutes at a temperature of 3720 C. in a measurement device (Chemiluminescence analyzer, Laboratorium Prof. Berthold, Wildbad, Germany). Then in order to amplify the chemiluminescence, 100 μl lucigenin solution was added (final concentration 1.54×10^-4 mol/l) and incubated for 16 more minutes. The cells were then activated by the addition of 100 μl of the ZyC3 b suspension produced as described in section 1.2 plus 100 μl phosphate buffer solution. […]

[2] = test system: oxygen radical-forming activity of peritoneal exudate cells (PEC) of mice; experiment: Spontaneous CL and induced CL chemiluminescence test: inhibition of oxygen radical liberation from peritoneal exudate cells (30 min preincubation); parameters: concentration or dose not given beside the values; conditions: for Inhibition in vitro of the oxygen radical liberation, Chemiluminescence Test % inhibition, Ind. CL: induced CL, after ZyC3b activation; for Inhibition in vitro of the oxygen radical liberation, Chemiluminescence Test % inhibition, Spnt. CL: spontaneous CL, before ZyC3b
Method: 1. To determine the inhibiting effect on the oxygen radical-forming activity of inflamed cells, the in vitro inhibition of the release of oxygen radicals from activated peritoneal exudate cells (=PEC) of mice was determined in the chemiluminescence (CL) test according to the method of Mueller-Peddinghaus (Int. J. Immunopharmac. 6, 455-466 (1984)). […] The intensity of the chemiluminescence is a measurement of the oxygen radical content in the suspension and thus the degree of activity of the inflamed cells. In this, three functionally different parameters are detected, the spontaneous CL, the induced CL and the peak CL. The spontaneous CL and the induced CL on the one hand and the peak CL on the other hand differ from each other because in the first two parameters the test substances are in contact with the cells for a 30 minute preincubation period before the inflammation irritant is added, whereas with the peak CL the cells are first stimulated, and the test substance is added at the peak of their activity. The measurement of the spontaneous CL thus detects the influence of the test substance on the relative rest activity of inflamed cells, the induced CL represents the effect of the test substances on the activatability of the cells and the inhibition of the peak CL indicates the effect of the test substances on the maximum activity of the inflamed cells. 1.1 Production of PEC suspension used in the test. In order to induce the PEC formation, female mice of 20-25 g body weight were each injected i.p. with 2 ml of a 3% solution of thioglycollate in sterile isotonic sodium chloride solution. Twenty four hours after the thioglycollate injection the cells, which predominantly consisted of polymorphonuclear leucocytes, were recovered by washing out of the abdominal cavity and washed twice. As cell culture medium there was added a commercially available solution under the designation RPMI 1640 (pH 7.2) (produced by Flow Laboratories, […], Germany), which contains 10% fetal calf serum (FCS, produced by Seromed GmbH, Munich, Germany) 18 μmol/l sodium bicarbonate and 2 μmol/l L-glutamine. The cell pellets of four animals each time were resuspended in cell culture medium, collected together and the suspension was made up to 2×10^6 cells per ml with cell culture medium. The cell suspensions were kept under ice cooling until their use the same day. 1.2 Production of the complement opsonized zymosan (=ZyC3 b) suspension used for activation. 200 mg zymosan (glycoprotein mixture isolated from the cell walls of brewer's yeast, Sacchomyces […], produced by Sigma Chemical Co., Munich, Germany) were suspended in 10 ml phosphate buffer solution according to Dulbecco (produced by Flow Laboratories, […], Germany), well stirred and heated for thirty minutes in a water bath to 100° C. After cooling, it was centrifuged for five minutes at 4° C. and at 600 ×g and the supernatant was discarded. The sediment was resuspended in 50 ml human serum and incubated for thirty minutes at 37° C. in a shaking water bath. Then it was centrifuged for five minutes at 600 ×g and 420 C., the supernatant decanted and the sediment washed with phosphate buffer solution. The working suspension of 8×10^-3 g ZyC3 b/ml was produced from the sediment by dilution with phosphate buffer solution (Mueller-Peddinghaus et al., Zbl. Vet. Med. B. 30, 559-575). 1.3 Chemiluminescence (CL) measurement (Peak-CL). […] At the end of this preincubation phase, 100 μl lucigenin were added, and in the course of the subsequent sixteen minute incubation phase the spontaneous CL parameter was determined with two measuring points. Then 100 μl ZyC3 b+100 μl phosphate buffer were added, and during the course of the subsequent twenty-four minute cell activation the induced CL parameter was measured with three measuring points. All measurements were determined twice. The parameters spontaneous CL and induced CL were determined on the same day with two separate cell pools.

Lipoxygenase = experiment: LTB4 synthesis and inhibition test (lipoxygenase inhibition in vitro) in polymorphonuclear leucocytes; conditions: Homo sapiens, PMNL, 10^-4 Mol/l, Ca-ionophore A 23187, arachidonic acid, read-out: Lipoxygenase inhib. in vitro, % inhibition of the LTB4 synthesis at 10^-4 Mol/l
Method: 2. In order to investigate the lipoxygenase-inhibiting properties, the inhibiting effect of the substances on the biosynthesis of leucotriene B4 (=LTB4) from arachidonic acid by activated inflamed cells was determined in vitro. Leucotriene B4, a dihydroxy fatty acid which plays an important role not only in the inflammation but also in allergic reactions was oxidatively formed, starting from arachidonic acid, by oxidation through the action of the enzyme lipoxygenase.
LTB4 Synthesis and Inhibition Test.
The combined extracts were evaporated under vacuum to dryness and the residue was taken up in 0.5 ml 30% aqueous methanol and was analyzed with the aid of high pressure liquid chromatography with phase reversal (=reversed phase-HPLC). The stationary phase (=separating medium) consisted of silica gel containing octadecyl groups chemically bound thereto (=RSIL C18 HP; produced by Autech, Darfield, Ill.). The solvent mixture is methanol:water:acetic acid (67:33:0.1; v/v/v), which had been adjusted to a pH value of 6.2 with NH3 /H2 O. The flow velocity was 1 ml/min. […] The LTB4 signals were compared with those of the control (cell incubation with solvent) and reported as percent inhibition of LTB4 synthesis compared with the controls.

| Compound | inhibition at 100 µM (stock) [1] [%] | Inhibition in vitro of the oxygen radical liberation, Chemiluminescence Test % inhibition, Ind. CL [2] [%] | Inhibition in vitro of the oxygen radical liberation, Chemiluminescence Test % inhibition, Spnt. CL [2] [%] | inhibition at 100 µM (Lipoxygenase) [%] |
| --- | --- | --- | --- | --- |
| O=C(NCCCC[N+]1([O-])CC[N+]([O-])(c2cccc[n+]2[O-])CC1)c1c(-c2ccccc2)oc2ccccc2c1=O (stereo not shown) [Example 26] | 10 | 3 | 13 | 43 |
| O=C(c1c(-c2ccccc2Cl)oc2ccccc2c1=O)N1CCN(c2ccccn2)CC1 [Example 35] | – | – | – | 100 |
| O=C(c1c(-c2ccc(O)c(O)c2)oc2ccccc2c1=O)N1CCN(c2ccccn2)CC1 [Example 29] | 75 | 74 | 65 | 97 |
| CC(=O)Oc1cc(-c2oc3ccccc3c(=O)c2C(=O)N2CCN(Cc3ccccc3)CC2)cc(OC(C)=O)c1OC(C)=O [Example 42b] | 99 | 100 | 99 | 100 |
